Measured values taken from patent publication US8871681B2, “Herbicidal compositions comprising 4-amino-3-chloro-5-fluoro-6-(4-chloro-2-fluoro-3-methoxyphenyl) pyridine-2-carboxylic acid or a derivative thereof and certain sulfonylureas” (Dow AgroSciences LLC, priority 2012, dated 2014).

Key:
[1] = test system: CASOB (Cassia obtusifolia, sicklepod); assay: Post-emergence herbicidal activity of mixtures in forage crops, greenhouse (Example IV); type: in vivo, Cassia obtusifolia L.; settings: Table 58 (forage), foliar-applied, after approximately 21 days
Procedure: Seeds or root cuttings of the desired test plant species were planted in Sun Gro MetroMix® 306 planting mixture, which typically has a pH of 6.0 to 6.8 and an organic matter content of about 30 percent, in plastic pots with a surface area of 126.6 square centimeters (cm^2). When required to ensure good germination and healthy plants, a fungicide treatment and/or other chemical or physical treatment was applied. The plants were grown for 14-60 days in a greenhouse with an approximate 14 hour photoperiod which was maintained at approximately 28° C. during the day and 24° C. during the night. Nutrients and water were added on a regular basis and supplemental lighting was provided with overhead metal halide 1000-Watt lamps as necessary. The plants were employed for testing when they reached the BBCH13 to BBCH23 leaf stage.
Treatments consisted of the benzyl ester of 4-amino-3-chloro-5-fluoro-6-(4-chloro-2-fluoro-3-methoxy-phenyl)pyridine-2-carboxylic acid (Compound A), formulated as a SC, and a second herbicide alone and in combination.
A measured aliquot of Compound A was placed in 25 milliliter (mL) glass vial and diluted in a volume of 1.25% (v/v) Agri-dex crop oil concentrated to obtain stock solutions. Compound requirements are based upon a 12 mL application volume at a rate of 187 liters per hectare (L/ha). Spray solutions of the second cereal herbicide and experimental compound mixtures were prepared by adding the stock solutions to the appropriate amount of dilution solution to form 12 mL spray solution with active ingredients in two- and three-way combinations. […]
The treated plants and control plants were placed in a greenhouse as described above and watered by sub-irrigation to prevent wash-off of the test compounds. After approximately 21 days, the condition of the test plants, as compared with that of the control plants, was determined visually and scored on a scale of 0 to 100 percent where 0 corresponds to no injury and 100 corresponds to complete kill. […]

[2] = test system: SETFA (Setaria faberi, giant foxtail); assay: Pre-emergence soil-applied weed control, greenhouse (Example V); type: in vivo, Setaria faberi Herrm.; settings: Table 59 (pre-emergence)
Source text: Seeds or nutlets of the desired test plant species were planted in a soil matrix prepared by mixing a loam soil (32 percent silt, 23 percent clay, and 45 percent sand, with a pH of about 6.5 and an organic matter content of about 1.9 percent) and calcareous grit in an 80 to 20 ratio. The soil matrix was contained in plastic pots with a volume of 1 quart and a surface area of 83.6 square centimeters (cm^2).
Treatments consisted of the benzyl ester of 4-amino-3-chloro-5-fluoro-6-(4-chloro-2-fluoro-3-methoxy-phenyl)pyridine-2-carboxylic acid (compound A) formulated as an SC (suspension concentrate) and various herbicidal components alone and in combination. Forms of compound A were applied on an acid equivalent basis.
Other herbicidal components were applied on an acid equivalent or active ingredient basis and included the acetolactate synthase (ALS)-inhibiting herbicide, flazasulfuron, formulated as Katana®.
Treatment requirements were calculated based upon the rates being tested, the concentration of active ingredient or acid equivalent in the formulation, and a 12 mL application volume at a rate of 187 L/ha.
For treatments comprised of formulated compounds, measured amounts of compounds were placed individually in 25 mL glass vials and diluted in a volume of 1.25% (v/v) Agri-Dex® crop oil concentrate (COC) to obtain 12× stock solutions. […] Application solutions were prepared by adding an appropriate amount of each stock solution (e.g., 1 mL) and diluted to the appropriate final concentrations with the addition of 10 mL of an aqueous mixture of 1.25% (v/v) COC so that the final spray solutions contained 1.25% (v/v) COC. […]
The treated and control pots were placed in a greenhouse and top watered as needed. […] After approximately 4 weeks, the condition of the test plants as compared with that of the untreated plants was determined visually and scored on a scale of 0 to 100 percent where 0 corresponds to no injury or growth inhibition and 100 corresponds to complete kill. […]

SMILES: COc1c(Cl)ccc(-c2nc(C(=O)OCc3ccccc3)c(Cl)c(N)c2F)c1F [Compound A Benzyl Ester]
- Weed Control CASOB Obs ([1]; 2.2 gai/ha alone): 33%
- Weed Control CASOB Obs ([1]; 4.4 gai/ha alone): 38%
- Visual Weed Control (%) - 27 DAA SETFA Obs ([2]; 16 gae/ha alone): 8%
- Visual Weed Control (%) - 27 DAA SETFA Obs ([2]; 32 gae/ha alone): 15%
